Each compound was assayed against T1, human GPR119 (Homo sapiens, UniProt Q8TDV5) (assay: Measurement of GPR119 signaling using LANCE 384-well cAMP kit (LCMP assay)). Details: HEK293 cells stably transfected with human GPR119.
T1 construct: expressed in transfected cells; host or cells: HEK293
T1 sequence (Q8TDV5 1-335): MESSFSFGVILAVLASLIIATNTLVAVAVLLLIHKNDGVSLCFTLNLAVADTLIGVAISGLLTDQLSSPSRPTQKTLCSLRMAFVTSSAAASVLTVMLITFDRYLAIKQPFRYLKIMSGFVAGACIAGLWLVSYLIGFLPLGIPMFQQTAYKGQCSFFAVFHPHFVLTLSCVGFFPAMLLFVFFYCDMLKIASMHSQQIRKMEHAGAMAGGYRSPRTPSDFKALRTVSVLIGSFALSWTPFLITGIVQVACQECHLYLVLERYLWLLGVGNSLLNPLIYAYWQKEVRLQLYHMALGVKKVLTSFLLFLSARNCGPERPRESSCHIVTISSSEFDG
Format: cell-based
Experimental: Measurement of GPR119 Signaling Using LANCE 384-Well cAMP Kit (LCMP Assay)
Human embryonic kidney (HEK) 293 cell lines stably transfected with human GPR119 were maintained in DMEM media containing FBS, penicillin-streptomycin, HEPES, and hygromycin. For the cAMP assay, the transfected cells were harvested using a non-enzymatic cell dissociation solution (GIBCO 2672), pelleted and resuspended in stimulation buffer (DMEM, 25 mM Hepes, 0.1% BSA, pH 7.4 in the presence of 100 μM phosphodiesterase inhibitors). The adenylate cyclase assay was constructed following the LANCE™ cAMP Kit (Perkin Elmer, AD0264) instructions. Briefly, cells with Alexa Fluor® 647-anti cAMP antibody were incubated with 10 point series diluted test article in stimulation buffer with a final concentration of 2.5% DMSO for 45 minutes. The reaction was stopped by incubating with the supplied detection buffer containing the europium chelate of the Eu-SA/Biotin-cAMP tracer for 3 hours. The assay was performed in duplicate in a 384 well plate for duplicate plates. Fluorescence at 665 nm was measured using a PHERAstar instrument. Basal activity was determined using a DMSO control and maximum response was defined as cAMP stimulation produced by an internal agonist control. Standard cAMP concentrations were assayed concurrently for conversion of fluorescence signal to cAMP level. The data was analyzed using 4-parameter curve fit in Microsoft Excel.

EC50 [nM] | Compound
0.34 | CCc1cnc(N2CCC([C@H]3C[C@@H]3CCOc3cc(F)c(CC(=O)N(C)C)c(F)c3)CC2)nc1 [Example 55, 2-(4-(2-((1R,2R)-2-(1-(5-ethylpyrimidin-2-yl)piperidin-4-yl)cyclopropyl)ethoxy)-2,6-difluorophenyl)-N,N-dimethylacetamide]
13 | Fc1cc(OCC[C@@H]2C[C@H]2C2CCN(c3ncc(Cl)cn3)CC2)ccc1-n1cnnn1 [Example 59, 5-chloro-2-(4-((1S,2S)-2-(2-(3-fluoro-4-(1H-tetrazol-1-yl)phenoxy)ethyl)cyclopropyl)piperidin-1-yl)pyrimidine]
10 | Clc1cnc(N2CCC([C@H]3C[C@@H]3CCNc3ncc(-n4cnnn4)cn3)CC2)nc1 [Example 123, N-(2-((1R,2S)-2-(1-(5-chloropyrimidin-2-yl)piperidin-4-yl)cyclopropyl)ethyl)-5-(1H-tetrazol-1-yl)pyrimidin-2-amine]
2.6 | CC(C)c1noc(N2CCC([C@H]3C[C@@H]3CCOc3ccc(CC(=O)N4CCC4)c(F)c3)CC2)n1 [Example 72, 1-(azetidin-1-yl)-2-(2-fluoro-4-(2-((1R,2R)-2-(1-(3-isopropyl-1,2,4-oxadiazol-5-yl)piperidin-4-yl)cyclopropyl)ethoxy)phenyl)ethanone]
9.6 | COCc1cnc(N2CCC([C@@H]3C[C@H]3CCOc3ccc(CC(=O)N(C)C)c(F)c3)CC2)nc1 [Example 52, 2-(2-fluoro-4-(2-((1S,2S)-2-(1-(5-(methoxymethyl)pyrimidin-2-yl)piperidin-4-yl)cyclopropyl)ethoxy)phenyl)-N,N-dimethylacetamide]
4.1 | CS(=O)(=O)c1ccc(OCC[C@H]2C[C@@H]2C2CCN(c3ncc(Cl)cn3)CC2)cc1F [Example 25, 5-chloro-2-(4-((1R,2R)-2-(2-(3-fluoro-4-(methylsulfonyl)phenoxy)ethyl)cyclopropyl)piperidin-1-yl)pyrimidine]
20 | COCc1noc(N2CCC([C@H]3C[C@@H]3CCOc3ccc(-n4cnnn4)cc3F)CC2)n1 [Example 90, 5-(4-((1R,2R)-2-(2-(2-fluoro-4-(1H-tetrazol-1-yl)phenoxy)ethyl)cyclopropyl)piperidin-1-yl)-3-(methoxymethyl)-1,2,4-oxadiazole]
11 | CC(C)c1noc(N2CCC([C@H]3C[C@@H]3CCOc3ccc(S(C)(=O)=O)c(F)c3)CC2)n1 [Example 87, 5-(4-((1R,2R)-2-(2-(3-fluoro-4-(methylsulfonyl)phenoxy)ethyl)cyclopropyl)piperidin-1-yl)-3-isopropyl-1,2,4-oxadiazole]
6.2 | CC(C)c1noc(N2CCC([C@@H]3C[C@H]3CCOc3ccc(-n4cnnn4)cc3F)CC2)n1 [Example 67, 5-(4-((1S,2S)-2-(2-(2-fluoro-4-(1H-tetrazol-1-yl)phenoxy)ethyl)cyclopropyl)piperidin-1-yl)-3-isopropyl-1,2,4-oxadiazole]
3 | COCc1noc(N2CCC([C@H]3C[C@@H]3CCOc3cc(F)c(CC(=O)N(C)C)c(F)c3)CC2)n1 [Example 84, 2-(2,6-difluoro-4-(2-((1R,2R)-2-(1-(3-(methoxymethyl)-1,2,4-oxadiazol-5-yl)piperidin-4-yl)cyclopropyl)ethoxy)phenyl)-N,N-dimethylacetamide]
5.9 | COCc1cnc(N2CCC([C@H]3C[C@@H]3CCOc3ccc(CC(=O)N(C)C)c(F)c3)CC2)nc1 [Example 53, 2-(2-fluoro-4-(2-((1R,2R)-2-(1-(5-(methoxymethyl)pyrimidin-2-yl)piperidin-4-yl)cyclopropyl)ethoxy)phenyl)-N,N-dimethylacetamide]
9.4 | CCc1cnc(N2CCC([C@@H]3C[C@H]3CCOc3ccc(S(C)(=O)=O)cc3F)CC2)nc1 [Example 26, 5-ethyl-2-(4-((1S,2S)-2-(2-(2-fluoro-4-(methylsulfonyl)phenoxy)ethyl)cyclopropyl)piperidin-1-yl)pyrimidine]
5.5 | CN(C)C(=O)Cc1ccc(OCC[C@H]2C[C@@H]2C2CCN(C(=O)OC3(C)CC3)CC2)cc1F [Example 100, 1-methylcyclopropyl 4-((1R,2R)-2-(2-(4-(2-(dimethylamino)-2-oxoethyl)-3-fluorophenoxy)ethyl)cyclopropyl)piperidine-1-carboxylate]
0.7 | CCc1cnc(N2CCC([C@@H]3C[C@H]3CCOc3cc(F)c(CC(=O)N(C)C)c(F)c3)CC2)nc1 [Example 49, 2-(4-(2-((1S,2S)-2-(1-(5-ethylpyrimidin-2-yl)piperidin-4-yl)cyclopropyl)ethoxy)-2,6-difluorophenyl)-N,N-dimethylacetamide]
3.4 | COCc1cnc(N2CCC([C@H]3C[C@@H]3CCOc3ccc(CC(=O)N4CCC4)c(F)c3)CC2)nc1 [Example 51, 1-(azetidin-1-yl)-2-(2-fluoro-4-(2-((1R,2R)-2-(1-(5-(methoxymethyl)pyrimidin-2-yl)piperidin-4-yl)cyclopropyl)ethoxy)phenyl)ethanone]
0.79 | CC(C)c1noc(N2CCC([C@@H]3C[C@H]3CCOc3cc(F)c(CC(=O)N(C)C)c(F)c3)CC2)n1 [Example 77, 2-(2,6-difluoro-4-(2-((1S,2S)-2-(1-(3-isopropyl-1,2,4-oxadiazol-5-yl)piperidin-4-yl)cyclopropyl)ethoxy)phenyl)-N,N-dimethylacetamide]
2.2 | CC(C)c1noc(N2CCC([C@@H]3C[C@H]3CCOc3ccc(CC(=O)N4CCC4)c(F)c3)CC2)n1 [Example 69, 1-(azetidin-1-yl)-2-(2-fluoro-4-(2-((1S,2S)-2-(1-(3-isopropyl-1,2,4-oxadiazol-5-yl)piperidin-4-yl)cyclopropyl)ethoxy)phenyl)ethanone]
21 | CC1(OC(=O)N2CCC([C@@H]3C[C@H]3CCOc3ccc(CC(=O)N4CCC4)cn3)CC2)CC1 [Example 120, 1-methylcyclopropyl 4-((1S,2S)-2-(2-(5-(2-(azetidin-1-yl)-2-oxoethyl)pyridin-2-yloxy)ethyl)cyclopropyl)piperidine-1-carboxylate]
2.1 | CN(C)C(=O)Cc1c(F)cc(OCC[C@@H]2C[C@H]2C2CCN(C(=O)OC3(C)CC3)CC2)cc1F [Example 102, 1-methylcyclopropyl 4-((1S,2S)-2-(2-(4-(2-(dimethylamino)-2-oxoethyl)-3,5-difluorophenoxy)ethyl)cyclopropyl)piperidine-1-carboxylate]
8.2 | CC1(OC(=O)N2CCC([C@@H]3C[C@H]3CCOc3ccc(-n4cnnn4)cc3F)CC2)CC1 [Example 96, 1-methylcyclopropyl 4-((1S,2S)-2-(2-(2-fluoro-4-(1H-tetrazol-1-yl)phenoxy)ethyl)cyclopropyl)piperidine-1-carboxylate]
6.4 | COCc1noc(N2CCC([C@H]3C[C@@H]3CCOc3ccc(CC(=O)N4CCC4)c(F)c3)CC2)n1 [Example 73, 1-(azetidin-1-yl)-2-(2-fluoro-4-(2-((1R,2R)-2-(1-(3-(methoxymethyl)-1,2,4-oxadiazol-5-yl)piperidin-4-yl)cyclopropyl)ethoxy)phenyl)ethanone]
5 | CCc1cnc(N2CCC([C@@H]3C[C@H]3CCOc3ccc(-n4cnnn4)cc3F)CC2)nc1 [Example 40, 5-ethyl-2-(4-((1S,2S)-2-(2-(2-fluoro-4-(1H-tetrazol-1-yl)phenoxy)ethyl)cyclopropyl)piperidin-1-yl)pyrimidine]
